Data from US10201532B2, “Compounds and their use” (ALLECRA THERAPEUTICS GMBH, priority 2010, dated 2019).
“And” between values parts separate entries of the source, which are not always exact repeats. Equal values may be shown once. Read-outs that look alike come from different tables or passages of the source.

Assays:
[1] = test system: E. cloacae 01 MGH 049 (KPC2, AmpC); experiment: Synergistic broth micro-dilution MIC; format: cell-based; details: BLI at 4 μg/mL
[2] = test system: E. coli Ecoli233 (KPC3); experiment: Synergistic broth micro-dilution MIC; format: cell-based, Escherichia coli
[3] = test system: KPC-3 expressing E. coli (J53 R6206); experiment: Synergistic broth micro-dilution MIC (checkerboard); format: cell-based, Escherichia coli; details: for MIC: Escherichia coli, read-out: MIC of BLI alone, BLI alone
[4] = test system: KPC-3 expressing E. coli (J53 R6206); experiment: microbe, parasite or virus in culture; format: cell-based, Escherichia coli; details: for MIC of Cefadroxil in combination with BLI / MIC of Cefalonium in combination with BLI / MIC of Cefquinome in combination with BLI / MIC of Ceftiofur in combination with BLI: BLI at 4 μg/mL, E. coli J53 R6206; for MIC: Escherichia coli, read-out: MIC of BLI alone
Protocol: The β-lactam compound was tested for in vitro antibacterial activities by the broth micro-dilution or agar dilution method as specified in documents published by Clinical and Laboratory Standards Institute (CLSI), USA (formerly NCCLS). Approved standard M7-A7, January 2006, CLSI, Wayne, Pa., USA and M100-S18, January 2008, CLSI, Wayne, Pa., USA.
In agar dilution method briefly, stock solutions of the cephalosporins for veterinary use (e.g. 2 mg/mL) was made in water, 0.1M phosphate buffers or appropriate solvents and the solution was serially two fold diluted. Compound-1 was dissolved in water and Tazobactam (comparator BLI) in 0.1M phosphate buffer, pH 6.0 to get a solution of 1 mg/mL. Cephalosporins were screened in a concentration range of 0.5-32 μg/mL. For combination, Tazobactam or the Compound-1 described herein were tested at a fixed concentration of 4 μg/mL along with the cephalosporins concentration ranging from 0.5 to 32 μg/mL. […] The compound of formula (I) and Tazobactam were also tested individually. The bacterial inoculum was prepared by picking 3 to 5 well isolated bacterial colonies with the same morphological appearance from an 18-24 h old culture and adjusting the turbidity of the saline suspension to 0.5 McFarland turbidity standard equivalent to a bacterial population of ˜1×10^8 CFU per mL of suspension. The suspension was diluted 1:10 in saline to get a bacterial population of ˜1×10^7 CFU/mL as inoculum. This bacterial inoculum was inoculated onto the prepared petri dishes by a multipoint inoculator with each inoculum spot containing ˜1×10^4 CFU of the bacterial strain. The inoculated petri dishes were incubated at 35° C. in an ambient atmosphere for 18-20 h.

[5] = test system: KPC2 K. pneumoniae ATCC BAA 1705; experiment: Mice systemic infection model; format: in vivo; details: Klebsiella pneumoniae
Protocol: Female Swiss Albino mice, weighing 18-22 g were used for all studies. For each dose group, 5 or 6 mice were included. Study protocols were reviewed and approved by Institutional Animal Ethical Committee, Orchid Research Laboratories Limited. Mice were housed in individually ventilated cages provided with food and water ad libitum, throughout the study period. From overnight culture in Brain-Heart Infusion agar medium, challenge inoculum with required bacterial density was prepared in normal saline containing Hog gastric mucin. In studies involved with doripenem, washed bacterial cells was used. Each mouse was infected […] inoculum by intra-peritoneal injection.
Infected mice were dosed sub-cutaneously, with drug preparations at three different time points post-infection.
Imipenem with BLI combinations: Increasing concentrations of Imipenem as single agent or in combination with fixed concentration of BLIs were used to dose infected mice, sub-cutaneously. In this experiment Imipenem was always administered along with cilastatin. Doripenem with BLI combinations: Increasing concentrations of doripenem as single agent or in combination with fixed concentration of BLIs were used to dose infected mice, sub-cutaneously.
Survival of the treated mice were monitored twice a day, up to 7 days post-infection. Efficacy dose 50 (ED50) was calculated by Reed and Muench method (Reed, L. J.; Muench, H. “A simple method of estimating fifty percent endpoints”. The American Journal of Hygiene, 1938, 27: 493-497.).

[6] = test system: KPC2 K. pneumoniae ATCC BAA 1705; experiment: Neutropenic mice thigh infection model (human adapted model); format: in vivo; details: for Bacterial load (range), Doripenem + BLI: Doripenem 70 mg/kg fractionated + BLI 35 mg/kg bolus, end point 8 h
Protocol: Female Swiss Albino mice weighing 24-30 g were used for all studies. Study protocols were reviewed and approved by Institutional Animal Ethical Committee, Orchid Research Laboratories Limited. Mice were rendered neutropenic by intra-peritoneal cyclophosphamide injections. Log phase culture in brain heart infusion broth was injected in to mice thighs. Imipenem or Doripenen alone or in combination were administered sub-cutaneously in decreasing fractionated doses every 15 minutes over the period of 5.5 h (Flückiger, U. et al. “Integration of pharmacokinetics and pharmacodynamics of Imipenem in a human-adapted mouse model’. Antimicrobial Agents and Chemother, 1991, 35(9): 1905-1910). The Compound-1 or tazobactam was administered sub-cutaneously as bolus dose at the start of dosing. Efficacy end point was 6 h in Imipenem studies and 8 h in Doripenen studies.
Three experiments were carried out where Doripenen alone or in combination with compound-1 or tazobactam (two experiments) were evaluated. Doripenem 70 mg/kg was administered in fractionated doses over the period of 5.5 h (Fluckiger, U. et al. “Integration of pharmacokinetics and pharmacodynamics of Imipenem in a human-adapted mouse model’. Antimicrobial Agents and Chemother., 1991, 35(9): 1905-1910). Compound-1 or tazobactam was administered as bolus dose at initiation of therapy. Efficacy end point was 8 h after initiation of therapy.

[7] = test system: KPC2 K. pneumoniae ATCC BAA 1705; experiment: Mice systemic infection model; format: in vivo; details: sub-cutaneous, printed as piperacillin:BLI dose
[8] = BAA1705, 168 h, read-out: ED50, single agent
[9] = BAA1705, BLI fixed at 64 mg/kg, mice, sub-cutaneous, with cilastatin, read-out: ED50 of Imipenem + BLI

Compound | MIC of Imipenem in combination with BLI [1] [µg/mL] | MIC of Imipenem in combination with BLI ([2]; BLI at 4 μg/mL) [µg/mL] | MIC of Imipenem in combination with BLI ([2]; BLI at 16 μg/mL) [µg/mL] | MIC of Cefepime in combination with BLI ([3]; BLI at 2 μg/mL) [µg/mL] | MIC of Cefotaxime in combination with BLI ([3]; BLI at 2 μg/mL) [µg/mL] | MIC of Ceftazidime in combination with BLI ([3]; BLI at 2 μg/mL) [µg/mL] | MIC of Ceftobiprole in combination with BLI ([3]; BLI at 2 μg/mL) [µg/mL] | MIC of Imipenem in combination with BLI ([3]; BLI at 2 μg/mL) [µg/mL] | MIC of Meropenem in combination with BLI ([3]; BLI at 2 μg/mL) [µg/mL] | MIC of Cefepime in combination with BLI ([3]; BLI at 4 μg/mL) [µg/mL] | MIC of Cefotaxime in combination with BLI ([3]; BLI at 4 μg/mL) [µg/mL] | MIC of Ceftazidime in combination with BLI ([3]; BLI at 4 μg/mL) [µg/mL] | MIC of Ceftobiprole in combination with BLI ([3]; BLI at 4 μg/mL) [µg/mL] | MIC of Imipenem in combination with BLI ([3]; BLI at 4 μg/mL) [µg/mL] | MIC of Cefepime in combination with BLI ([3]; BLI at 8 μg/mL) [µg/mL] | MIC of Cefotaxime in combination with BLI ([3]; BLI at 8 μg/mL) [µg/mL] | MIC of Ceftazidime in combination with BLI ([3]; BLI at 8 μg/mL) [µg/mL] | MIC of Ceftobiprole in combination with BLI ([3]; BLI at 8 μg/mL) [µg/mL] | MIC of Imipenem in combination with BLI ([3]; BLI at 8 μg/mL) [µg/mL] | MIC of Meropenem in combination with BLI ([3]; BLI at 8 μg/mL) [µg/mL] | further results
C[n+]1ccn(C[C@@]2(C)[C@H](C(=O)[O-])N3C(=O)C[C@H]3S2(=O)=O)n1 [Compound-1, 1-{[(2S,3S,5R)-2-Carboxy-3-methyl-4,4,7-trioxo-4-thia-1-azabicyclo[3.2.0]hept-3-yl]methyl}-3-methyl-1H-1,2,3-triazol-3-ium] | 4 | 4 | 1 | 1 | 1 | 2 | 2 | 1 | <0.06 | 0.25 | <0.25 | 1 | 0.5 | 0.5 | <0.125 | <0.25 | 1 | <0.25 | 0.5 | <0.06 | MIC of Imipenem in combination with BLI ([3]; BLI at 16 μg/mL): 0.25 µg/mL; MIC of Meropenem in combination with BLI ([3]; BLI at 16 μg/mL): <0.125 µg/mL; MIC [3]: > 8 µg/mL; MIC of Cefadroxil in combination with BLI [4]: >32 µg/mL; MIC of Cefalonium in combination with BLI [4]: 4 µg/mL; MIC of Cefquinome in combination with BLI [4]: <0.5 µg/mL; MIC of Ceftiofur in combination with BLI [4]: <0.5 µg/mL; MIC [4]: > 16 µg/mL; ED50 [5, 8]: > 64 mg/kg; ED50 [5, 9]: 2.2 mg/kg; Bacterial load (range), Doripenem + BLI [6]: 7.9E+05-1.4E+06 CFU/thigh; Bacterial load (range), Doripenem + BLI ([6]; listed as compound-1): 7.9E+05-1.3E+06 CFU/thigh; Bacterial load, Imipenem + BLI ([6]; Imipenem 140 mg/kg fractionated + BLI 140 mg/kg bolus, end point 6 h): 2.1E+05 CFU/thigh; ED50 of Piperacillin:BLI at 1:1 ratio [7]: 50 mg/kg and 50:50 mg/kg
C[C@]1(Cn2ccnn2)[C@H](C(=O)O)N2C(=O)C[C@H]2S1(=O)=O [Tazobactam] | 8 | 8 | 8 | 16 | 8 | 32 | 32 | 2 | 1 | 8 | 8 | 32 | 16 | 2 | 4 | 4 | 32 | 16 | 1 | 0.5 | MIC of Meropenem in combination with BLI ([3]; BLI at 4 μg/mL): 0.5 µg/mL; MIC of Imipenem in combination with BLI ([3]; BLI at 16 μg/mL): 1 µg/mL; MIC of Meropenem in combination with BLI ([3]; BLI at 16 μg/mL): <0.125 µg/mL; MIC [3]: > 8 µg/mL; MIC of Cefadroxil in combination with BLI [4]: >32 µg/mL; MIC of Cefalonium in combination with BLI [4]: 32 µg/mL; MIC of Cefquinome in combination with BLI [4]: 8 µg/mL; MIC of Ceftiofur in combination with BLI [4]: 2 µg/mL; MIC [4]: > 16 µg/mL; ED50 [5, 8]: > 200 mg/kg; ED50 [5, 9]: 4 mg/kg; Bacterial load (range), Doripenem + BLI [6]: 1.19 × 10^7-1.6 × 10^7 CFU/thigh; ED50 of Piperacillin:BLI at 1:1 ratio [7]: >200:>200 mg/kg; ED50 of Piperacillin:BLI at 1:1 ratio ([7]; listed as tazobactam): > 200 mg/kg
